Measured values from ChEMBL document CHEMBL1141992, “Synthesis and radiopharmacological evaluation of 2'-(4-fluorophenyl)-21-[18F]fluoro-20-oxo-11beta,17alpha-dihydroxy-pregn-4-eno[3,2-c]pyrazole as potential glucocorticoid receptor ligand for positron emission tomography (PET)” (Bioorg Med Chem Lett, 2005).

Columns and labels:
[1] = Radioactivity expressed as percent injected dose per gram after single intravenous injection of 50 uCi after 60 min in rat femur;n =4; format: ADME, tissue-based; conditions: in vivo, 1 h
[2] = Radioactivity expressed as percent injected dose per gram after single intravenous injection of 50 uCi after 60 min in rat muscle;n =4; format: ADME, tissue-based, Muscle tissue; conditions: in vivo, 1 h
[3] = Radioactivity expressed as percent injected dose per gram after single intravenous injection of 50 uCi after 5 min in rat spleen;n =4; format: ADME, tissue-based; conditions: in vivo
[4] = Radioactivity expressed as percent injected dose per gram after single intravenous injection of 50 uCi after 60 min in rat spleen;n =4; format: ADME, tissue-based; conditions: in vivo, 1 h
[5] = Radioactivity expressed as percent injected dose per gram after single intravenous injection of 50 uCi after 5 min in rat blood;n =4; format: ADME; conditions: in vivo
[6] = Radioactivity expressed as percent injected dose per gram after single intravenous injection of 50 uCi after 5 min in rat femur;n =4; format: ADME, tissue-based; conditions: in vivo
[7] = Radioactivity expressed as percent injected dose per gram after single intravenous injection of 50 uCi after 60 min in rat fat;n =4; format: ADME; conditions: in vivo, 1 h
[8] = Radioactivity expressed as percent injected dose per gram after single intravenous injection of 50 uCi after 60 min in rat kidney;n =4; format: ADME, tissue-based; conditions: in vivo, 1 h
[9] = Radioactivity expressed as percent injected dose per gram after single intravenous injection of 50 uCi after 5 min in rat brain;n =4; format: ADME, tissue-based; conditions: in vivo
[10] = Radioactivity expressed as percent injected dose per gram after single intravenous injection of 50 uCi after 60 min in rat liver;n =4; format: ADME, tissue-based; conditions: in vivo, 1 h
[11] = Radioactivity expressed as percent injected dose per gram after single intravenous injection of 50 uCi after 5 min in rat kidney;n =4; format: ADME, tissue-based; conditions: in vivo
[12] = Radioactivity expressed as percent injected dose per gram after single intravenous injection of 50 uCi after 5 min in rat fat;n =4; format: ADME; conditions: in vivo
[13] = Radioactivity expressed as percent injected dose per gram after single intravenous injection of 50 uCi after 60 min in rat testis;n =4; format: ADME; conditions: in vivo, 1 h
[14] = Radioactivity expressed as percent injected dose per gram after single intravenous injection of 50 uCi after 5 min in rat hard glands;n =4; format: ADME; conditions: in vivo
[15] = Radioactivity expressed as percent injected dose per gram after single intravenous injection of 50 uCi after 5 min in rat muscle;n =4; format: ADME, tissue-based, Muscle tissue; conditions: in vivo
[16] = Activity distribution of compound in blocked (hydrocortisone) rat brain pituitary after single iv injection of 0.9 mCi at 60 min after injection by ex vivo autoradiography; format: ADME, organism-based; conditions: 1 h
[17] = Radioactivity expressed as percent injected dose per gram after single intravenous injection of 50 uCi after 5 min in rat brown fat;n =4; format: ADME; conditions: in vivo
[18] = Radioactivity expressed as percent injected dose per gram after single intravenous injection of 50 uCi after 5 min in rat lung;n =4; format: ADME; conditions: in vivo
[19] = Radioactivity expressed as percent injected dose per gram after single intravenous injection of 50 uCi after 5 min in rat adrenals;n =4; format: ADME, tissue-based, Adrenal gland; conditions: in vivo
[20] = Activity distribution of compound in blocked (hydrocortisone) rat brain hippocampus after single iv injection of 0.9 mCi at 60 min after injection by ex vivo autoradiography; format: ADME, organism-based; conditions: 1 h
[21] = Radioactivity expressed as percent injected dose per gram after single intravenous injection of 50 uCi after 60 min in rat brown fat;n =4; format: ADME; conditions: in vivo, 1 h
[22] = Radioactivity expressed as percent injected dose per gram after single intravenous injection of 50 uCi after 60 min in rat pituitary;n =4; format: ADME; conditions: in vivo, 1 h
[23] = Radioactivity expressed as percent injected dose per gram after single intravenous injection of 50 uCi after 5 min in rat pancreas;n =4; format: ADME; conditions: in vivo
[24] = Radioactivity expressed as percent injected dose per gram after single intravenous injection of 50 uCi after 5 min in rat heart;n =4; format: ADME; conditions: in vivo
[25] = Radioactivity expressed as percent injected dose per gram after single intravenous injection of 50 uCi after 60 min in rat lung;n =4; format: ADME; conditions: in vivo, 1 h
[26] = Activity distribution of compound in blocked (hydrocortisone) rat brain cerebellar nuclei after single iv injection of 0.9 mCi at 60 min after injection by ex vivo autoradiography; format: ADME, organism-based; conditions: 1 h
[27] = Radioactivity expressed as percent injected dose per gram after single intravenous injection of 50 uCi after 60 min in rat thymus;n =4; format: ADME; conditions: in vivo, 1 h
[28] = Radioactivity expressed as percent injected dose per gram after single intravenous injection of 50 uCi after 5 min in rat thymus;n =4; format: ADME; conditions: in vivo
[29] = Radioactivity expressed as percent injected dose per gram after single intravenous injection of 50 uCi after 60 min in rat heart;n =4; format: ADME; conditions: in vivo, 1 h
[30] = Radioactivity expressed as percent injected dose per gram after single intravenous injection of 50 uCi after 60 min in rat brain;n =4; format: ADME, tissue-based; conditions: in vivo, 1 h
[31] = Radioactivity expressed as percent injected dose per gram after single intravenous injection of 50 uCi after 60 min in rat pancreas;n =4; format: ADME; conditions: in vivo, 1 h
[32] = Radioactivity expressed as percent injected dose per gram after single intravenous injection of 50 uCi after 60 min in rat blood;n =4; format: ADME; conditions: in vivo, 1 h
[33] = Radioactivity expressed as percent injected dose per gram after single intravenous injection of 50 uCi after 5 min in rat liver;n =4; format: ADME, tissue-based; conditions: in vivo
[34] = Activity distribution of compound in blocked (hydrocortisone) rat brain inferior coliculi after single iv injection of 0.9 mCi at 60 min after injection by ex vivo autoradiography; format: ADME, organism-based; conditions: 1 h
[35] = Activity distribution of compound in blocked (hydrocortisone) rat brain plexus choroideus after single iv injection of 0.9 mCi at 60 min after injection by ex vivo autoradiography; format: ADME, organism-based; conditions: 1 h
[36] = Radioactivity expressed as percent injected dose per gram after single intravenous injection of 50 uCi after 5 min in rat testis;n =4; format: ADME; conditions: in vivo
[37] = Radioactivity expressed as percent injected dose per gram after single intravenous injection of 50 uCi after 5 min in rat pituitary;n =4; format: ADME; conditions: in vivo
[38] = Radioactivity expressed as percent injected dose per gram after single intravenous injection of 50 uCi after 60 min in rat hard glands;n =4; format: ADME; conditions: in vivo, 1 h
[39] = Activity distribution of compound in blocked (hydrocortisone) rat brain cortex after single iv injection of 0.9 mCi at 60 min after injection by ex vivo autoradiography; format: ADME, organism-based; conditions: 1 h
[40] = Radioactivity expressed as percent injected dose per gram after single intravenous injection of 50 uCi after 60 min in rat adrenals;n =4; format: ADME, tissue-based, Adrenal gland; conditions: in vivo, 1 h

C[C@]12Cc3cnn(-c4ccc(F)cc4)c3C=C1CCC1C2[C@@H](O)C[C@@]2(C)C1CC[C@]2(O)C(=O)C[18F] (stereo not given in full)
ID/g [1]: 0.22% | ID/g [2]: 0.32% | ID/g [3]: 0.4% | ID/g [4]: 0.44% | ID/g [5]: 0.06% | ID/g [6]: 0.34% | ID/g [7]: 0.31% | ID/g [8]: 0.87% | ID/g [9]: 0.26% | ID/g [10]: 2.15% | ID/g [11]: 0.66% | ID/g [12]: 0.82% | ID/g [13]: 0.07% | ID/g [14]: 1.09% | ID/g [15]: 0.31% | ID/g [16]: 1.36% | ID/g [17]: 0.8% | ID/g [18]: 0.6% | ID/g [19]: 1.23% | ID/g [20]: 0.59% | ID/g [21]: 0.91% | ID/g [22]: 0.82% | ID/g [23]: 0.85% | ID/g [24]: 0.63% | ID/g [25]: 0.66% | ID/g [26]: 0.94% | ID/g [27]: 0.4% | ID/g [28]: 0.37% | ID/g [29]: 0.66% | ID/g [30]: 0.25% | ID/g [31]: 0.85% | ID/g [32]: 0.08% | ID/g [33]: 1.3% | ID/g [34]: 0.89% | ID/g [35]: 0.83% | ID/g [36]: 0.18% | ID/g [37]: 0.52% | ID/g [38]: 0.55% | ID/g [39]: 0.7% | ID/g [40]: 1.96%
